Test results as given in PubChem BioAssay AID2060620 (Molecular Pharmacology Branch, DTP, NCI, 2025).

Test system: 328373-195-R-J1-PDC complex spheroids, viability % test/control
Assay: Anticancer human tumor 328373-195-R-J1-PDC patient-derived head and neck squamous carcinoma cell line growth inhibition [CLK]
Details: for IC50: curve of first compound; for viability, T/C: stronger effect = lower value
How it was run: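 Patient-derived tumor cells grown as complex spheroids with HUVEC endothelial cells and mesenchymal stem cells, treated with drug combinations. Concentrations descend in half-log steps from near clinical Cmax, or from 10 microM if Cmax unknown.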

[1] = second compound 0.0316 µM, first compound 0.0316 µM
[2] = second compound 0.0316 µM, first compound 0.1 µM
[3] = second compound 0.0316 µM, first compound 0.316 µM
[4] = second compound 0.0316 µM, first compound 1 µM
[5] = second compound 0.0316 µM, first compound 3.16 µM
[6] = second compound 0.0316 µM, first compound 10 µM
[7] = second compound 0.1 µM, first compound 0.0316 µM
[8] = second compound 0.1 µM, first compound 0.1 µM
[9] = second compound 0.1 µM, first compound 0.316 µM
[10] = second compound 0.1 µM, first compound 1 µM
[11] = second compound 0.1 µM, first compound 3.16 µM
[12] = second compound 0.1 µM, first compound 10 µM
[13] = second compound 0.316 µM, first compound 0.0316 µM
[14] = second compound 0.316 µM, first compound 0.1 µM
[15] = second compound 0.316 µM, first compound 0.316 µM
[16] = second compound 0.316 µM, first compound 1 µM
[17] = second compound 0.316 µM, first compound 3.16 µM
[18] = second compound 0.316 µM, first compound 10 µM
[19] = second compound 1 µM, first compound 0.0316 µM
[20] = second compound 1 µM, first compound 0.1 µM
[21] = second compound 1 µM, first compound 0.316 µM
[22] = second compound 1 µM, first compound 1 µM
[23] = second compound 1 µM, first compound 3.16 µM
[24] = second compound 1 µM, first compound 10 µM
[25] = second compound 3.16 µM, first compound 0.0316 µM
[26] = second compound 3.16 µM, first compound 0.1 µM
[27] = second compound 3.16 µM, first compound 0.316 µM
[28] = second compound 3.16 µM, first compound 1 µM
[29] = second compound 3.16 µM, first compound 3.16 µM
[30] = second compound 3.16 µM, first compound 10 µM
[31] = second compound 10 µM, first compound 0.0316 µM
[32] = second compound 10 µM, first compound 0.1 µM
[33] = second compound 10 µM, first compound 0.316 µM
[34] = second compound 10 µM, first compound 1 µM
[35] = second compound 10 µM, first compound 3.16 µM
[36] = second compound 10 µM, first compound 10 µM
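Note: spheroids exposed to the agents for 7 days.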

In the case of `CC(C)CC(NC(=O)C(Cc1ccccc1)NC(=O)c1cnccn1)B(O)O` (stereo unspecified) + CN1CCN(c2cc(C(=O)Nc3cc4cc(-c5cnn(C)c5)ccc4cn3)ccn2)CC1, the IC50 (second compound 0.0316 µM) is reported as 1.76 nM, the IC50 (second compound 0.1 µM) is reported as 1.5 nM and the IC50 (second compound 0.316 µM) is reported as < 0.949 nM. The IC50 (second compound 1 µM) was < 0.949 nM, the IC50 (second compound 3.16 µM) was < 0.949 nM and the IC50 (second compound 10 µM) was < 0.949 nM. It also gave a viability, T/C (second compound 0.0316 µM, first compound 0.000949 µM) of 98.5%, a viability, T/C (second compound 0.0316 µM, first compound 0.003 µM) of 8.37% and a viability, T/C (second compound 0.0316 µM, first compound 0.00949 µM) of 1.89%. For the same compound, the viability, T/C (second compound 0.0316 µM, first compound 0.03 µM) was 0.2%, the viability, T/C (second compound 0.0316 µM, first compound 0.0949 µM) was 0.17% and the viability, T/C (second compound 0.0316 µM, first compound 0.3 µM) was 2.7%. It also gave a viability, T/C (second compound 0.1 µM, first compound 0.000949 µM) of 78.4%, a viability, T/C (second compound 0.1 µM, first compound 0.003 µM) of 6.61% and a viability, T/C (second compound 0.1 µM, first compound 0.00949 µM) of 2.17%. It also gave a viability, T/C (second compound 0.1 µM, first compound 0.03 µM) of 0.2%, a viability, T/C (second compound 0.1 µM, first compound 0.0949 µM) of 1.87% and a viability, T/C (second compound 0.1 µM, first compound 0.3 µM) of 2.34%. The viability, T/C (second compound 0.316 µM, first compound 0.000949 µM) was 26.6%, the viability, T/C (second compound 0.316 µM, first compound 0.003 µM) was 1.25% and the viability, T/C (second compound 0.316 µM, first compound 0.00949 µM) was 0.78%. The viability, T/C (second compound 0.316 µM, first compound 0.03 µM) was 0.49%, the viability, T/C (second compound 0.316 µM, first compound 0.0949 µM) was 1.14% and the viability, T/C (second compound 0.316 µM, first compound 0.3 µM) was 4.1%. It also gave a viability, T/C (second compound 1 µM, first compound 0.000949 µM) of 0.13%, a viability, T/C (second compound 1 µM, first compound 0.003 µM) of 3.65% and a viability, T/C (second compound 1 µM, first compound 0.00949 µM) of 0.97%. The viability, T/C (second compound 1 µM, first compound 0.03 µM) was 0.1%, the viability, T/C (second compound 1 µM, first compound 0.0949 µM) was 0.09% and the viability, T/C (second compound 1 µM, first compound 0.3 µM) was 2.54%. For the same compound, the viability, T/C (second compound 3.16 µM, first compound 0.000949 µM) was 0.08%, the viability, T/C (second compound 3.16 µM, first compound 0.003 µM) was 4.42% and the viability, T/C (second compound 3.16 µM, first compound 0.00949 µM) was 1.48%. It also gave a viability, T/C (second compound 3.16 µM, first compound 0.03 µM) of 0.07%, a viability, T/C (second compound 3.16 µM, first compound 0.0949 µM) of 1.48% and a viability, T/C (second compound 3.16 µM, first compound 0.3 µM) of 1.92%. The viability, T/C (second compound 10 µM, first compound 0.000949 µM) was 2.18%, the viability, T/C (second compound 10 µM, first compound 0.003 µM) was 1.53% and the viability, T/C (second compound 10 µM, first compound 0.00949 µM) was 3.09%. The viability, T/C (second compound 10 µM, first compound 0.03 µM) was 0.11%, the viability, T/C (second compound 10 µM, first compound 0.0949 µM) was 1.22% and the viability, T/C (second compound 10 µM, first compound 0.3 µM) was 2.07%.

With `CC1(C)CCC(CN2CCN(c3ccc(C(=O)NS(=O)(=O)c4ccc(NCC5CCOCC5)c([N+](=O)[O-])c4)c(Oc4cnc5[nH]ccc5c4)c3)CC2)=C(c2ccc(Cl)cc2)C1` + CN1CCN(c2cc(C(=O)Nc3cc4cc(-c5cnn(C)c5)ccc4cn3)ccn2)CC1 the IC50 (second compound 0.0316 µM) was 6500 nM, the IC50 (second compound 0.1 µM) was > 10000 nM and the IC50 (second compound 0.316 µM) was < 31.6 nM. The IC50 (second compound 1 µM) was < 31.6 nM, the IC50 (second compound 3.16 µM) was < 31.6 nM and the IC50 (second compound 10 µM) was < 31.6 nM. For the same compound, the viability, T/C [1] was 98.7%, the viability, T/C [2] was 99.3% and the viability, T/C [3] was 93.3%. It also gave a viability, T/C [4] of 91.4%, a viability, T/C [5] of 83.8% and a viability, T/C [6] of 30.1%. It also gave a viability, T/C [7] of 88.8%, a viability, T/C [8] of 83.2% and a viability, T/C [9] of 86.4%. The viability, T/C [10] was 81.8%, the viability, T/C [11] was 78.2% and the viability, T/C [12] was 51.5%. The viability, T/C [13] was 28%, the viability, T/C [14] was 34.3% and the viability, T/C [15] was 33.9%. For the same compound, the viability, T/C [16] was 31.2%, the viability, T/C [17] was 33% and the viability, T/C [18] was 40.4%. For the same compound, the viability, T/C [19] was 0.22%, the viability, T/C [20] was 0.22% and the viability, T/C [21] was 0.21%. The viability, T/C [22] was 0.14%, the viability, T/C [23] was 2.75% and the viability, T/C [24] was 3.03%. For the same compound, the viability, T/C [25] was 0.09%, the viability, T/C [26] was 0.14% and the viability, T/C [27] was 1.25%. It also gave a viability, T/C [28] of 0.12%, a viability, T/C [29] of 0.11% and a viability, T/C [30] of 0.15%. The viability, T/C [31] was 0.11%, the viability, T/C [32] was 1.97% and the viability, T/C [33] was 3.19%. For the same compound, the viability, T/C [34] was 0.16%, the viability, T/C [35] was 1.92% and the viability, T/C [36] was 2.43%.

In the case of `CC1COCCN1c1cc(C2(S(C)(=N)=O)CC2)nc(-c2ccnc3[nH]ccc23)n1` (stereo unspecified) + CN1CCN(c2cc(C(=O)Nc3cc4cc(-c5cnn(C)c5)ccc4cn3)ccn2)CC1, the IC50 (second compound 0.0316 µM) is reported as 1660 nM, the IC50 (second compound 0.1 µM) is reported as 1150 nM and the IC50 (second compound 0.316 µM) is reported as < 31.6 nM. The IC50 (second compound 1 µM) was < 31.6 nM, the IC50 (second compound 3.16 µM) was < 31.6 nM and the IC50 (second compound 10 µM) was < 31.6 nM. For the same compound, the viability, T/C [1] was 95.4%, the viability, T/C [2] was 96.6% and the viability, T/C [3] was 88.2%. It also gave a viability, T/C [4] of 69.3%, a viability, T/C [5] of 25.9% and a viability, T/C [6] of 8.66%. It also gave a viability, T/C [7] of 90.9%, a viability, T/C [8] of 86.8% and a viability, T/C [9] of 81.1%. The viability, T/C [10] was 55.2%, the viability, T/C [11] was 18% and the viability, T/C [12] was 9.2%. The viability, T/C [13] was 22.7%, the viability, T/C [14] was 37.2% and the viability, T/C [15] was 28.5%. It also gave a viability, T/C [16] of 14.7%, a viability, T/C [17] of 7.56% and a viability, T/C [18] of 7.95%. The viability, T/C [19] was 0.21%, the viability, T/C [20] was 0.24% and the viability, T/C [21] was 0.58%. The viability, T/C [22] was 0.22%, the viability, T/C [23] was 2.35% and the viability, T/C [24] was 2.29%. For the same compound, the viability, T/C [25] was 2.09%, the viability, T/C [26] was 0.12% and the viability, T/C [27] was 0.16%. For the same compound, the viability, T/C [28] was 0.14%, the viability, T/C [29] was 1.51% and the viability, T/C [30] was 3.51%. The viability, T/C [31] was 0.14%, the viability, T/C [32] was 1.61% and the viability, T/C [33] was 1.87%. For the same compound, the viability, T/C [34] was 1.76%, the viability, T/C [35] was 1.92% and the viability, T/C [36] was 2.57%.
